One test has as its system pERK in MKN1 cells. Nature of the test: Inhibition of KRas phosphorylation of ERK (Cisbio HTRF pERK assay). The following applies: Homo sapiens, MKN-1, 3 h, read-out: Inhibition (HTRF IC50) of KRas-mediated Phosphorylation of ERK, MKN1.
The subject of another test is pERK in HCT116 cells. Described as above. The following applies: Homo sapiens, HCT-116, read-out: Inhibition (HTRF IC50) of KRas-mediated Phosphorylation of ERK, HCT116.
Another test relates to pERK in ASPC1 cells. The description is as above. The following applies: Homo sapiens, ASPC1, read-out: Inhibition (HTRF IC50) of KRas-mediated Phosphorylation of ERK, AsPC-1.
The target in the next test is KRas G12V (Homo sapiens, UniProt P01116, G12V). Nature of the test: biochemical.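 Also: KRas binding measured by TR-FRET displacement at room temperature, IC50 fitted from percent of control values.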
In another test the test system is pERK in PSN1 cells. Nature of the test: Inhibition of KRas phosphorylation of ERK (Cisbio HTRF pERK assay). The following applies: Homo sapiens, PSN1, 3 h, read-out: Inhibition (HTRF IC50) of KRas-mediated Phosphorylation of ERK, PSN1.
Another test deals with KRas G12R (Homo sapiens, UniProt P01116, G12R). Nature of the test: biochemical.
Another test concerns the target KRas G12D (Homo sapiens, UniProt P01116, G12D). Nature of the test: biochemical.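 Also: TR-FRET displacement binding assay on KRas, read after a one-hour incubation at room temperature, IC50 fitted from percent-of-control values.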
The target in a further test is KRas G12C (Homo sapiens, UniProt P01116, G12C). Put plainly: biochemical.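 Also: binding to KRas assessed by TR-FRET displacement after one hour incubation at room temperature, potency fitted from percent-of-control values.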
A further test concerns the target KRas WT (Homo sapiens, UniProt P01116). Nature of the test: biochemical.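 Also: binding to KRas read as TR-FRET displacement after a one-hour room-temperature incubation, IC50 derived from percent-of-control values.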

SMILES strings stand for the structures.

Chain of KRas G12C (P01116 1-169 isoform P01116-2 G12C): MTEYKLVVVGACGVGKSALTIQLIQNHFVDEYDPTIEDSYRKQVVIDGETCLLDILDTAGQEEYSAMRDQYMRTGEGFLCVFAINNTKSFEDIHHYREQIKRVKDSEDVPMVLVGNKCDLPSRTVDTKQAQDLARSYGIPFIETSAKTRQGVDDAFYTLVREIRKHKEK
Chain of KRas G12D (P01116 1-169 isoform P01116-2 G12D): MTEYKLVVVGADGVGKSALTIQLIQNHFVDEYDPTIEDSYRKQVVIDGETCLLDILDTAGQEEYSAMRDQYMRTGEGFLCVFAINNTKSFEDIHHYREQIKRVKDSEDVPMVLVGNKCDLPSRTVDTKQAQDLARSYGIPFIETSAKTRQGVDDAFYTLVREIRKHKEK
Chain of KRas G12V (P01116 1-169 isoform P01116-2 G12V): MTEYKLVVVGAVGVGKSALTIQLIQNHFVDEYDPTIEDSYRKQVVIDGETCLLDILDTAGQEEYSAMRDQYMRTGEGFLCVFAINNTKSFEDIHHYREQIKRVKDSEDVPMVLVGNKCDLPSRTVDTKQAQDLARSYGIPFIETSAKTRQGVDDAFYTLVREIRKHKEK
Chain of KRas WT (P01116 1-169 isoform P01116-2): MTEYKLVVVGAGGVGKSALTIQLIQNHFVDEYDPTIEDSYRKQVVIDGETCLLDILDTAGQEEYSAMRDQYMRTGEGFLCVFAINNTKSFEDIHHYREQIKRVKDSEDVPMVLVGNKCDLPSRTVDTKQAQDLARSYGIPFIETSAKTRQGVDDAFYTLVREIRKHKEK
Chain of KRas G12R (P01116 1-169 isoform P01116-2 G12R): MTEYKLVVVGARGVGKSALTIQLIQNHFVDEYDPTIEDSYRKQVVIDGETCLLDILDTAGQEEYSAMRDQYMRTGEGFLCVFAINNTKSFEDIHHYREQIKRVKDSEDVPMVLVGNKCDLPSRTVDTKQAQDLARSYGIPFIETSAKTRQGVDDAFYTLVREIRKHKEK

Consider `CCc1c(F)ccc2cc(O)cc(-c3ncc4c(NCC5CCC(=O)N5)nc(OC[C@@]56CCCN5C[C@H](F)C6)nc4c3F)c12` (stereo partly drawn) [Example 371, 5-(((7-(8-ethyl-7-fluoro-3-hydroxynaphthalen-1-yl)-8-fluoro-2-(((2R,7aS)-2-fluorohexahydro-1H-pyrrolizin-7a-yl)methoxy)pyrido[4,3-d]pyrimidin-4-yl)amino)methyl)pyrrolidin-2-one], for which the IC50 with pERK in MKN1 cells is 0.387 µM; with pERK in HCT116 cells, 9.34 µM; in the test on pERK in ASPC1 cells, no less than 20 µM; against KRas G12V it was no more than 0.002 µM; in the test with pERK in PSN1 cells, no less than 10 µM; against KRas G12R it was 0.005 µM. The concentration for half-maximal inhibition (IC50) on KRas G12D was 0.007 µM.

Turning to `CCc1c(F)ccc2cc(O)cc(-c3ncc4c(NCC5CC(=O)N5)nc(OC[C@@]56CCCN5C[C@H](F)C6)nc4c3F)c12` (single isomer, unassigned) [Example 373], the IC50 in the test with pERK in MKN1 cells is 0.103 µM; in the test with pERK in HCT116 cells, 3.84 µM; in the test with pERK in ASPC1 cells, 4.07 µM; against KRas G12V, no more than 0.002 µM; in the test on pERK in PSN1 cells it was no less than 10 µM; on KRas G12R it was no more than 0.002 µM. The compound further showed a 50% inhibitory concentration (IC50) at KRas G12D of 0.005 µM.

For the compound `CCc1c(F)ccc2cc(O)cc(-c3ncc4c(NCCC5NC(=O)NC5=O)nc(OC[C@@]56CCCN5C[C@H](F)C6)nc4c3F)c12` (stereo partly drawn) [Example 383, 5-(2-((7-(8-ethyl-7-fluoro-3-hydroxynaphthalen-1-yl)-8-fluoro-2-(((2R,7aS)-2-fluorohexahydro-1H-pyrrolizin-7a-yl)methoxy)pyrido[4,3-d]pyrimidin-4-yl)amino)ethyl) imidazolidine-2,4-dione], the IC50 is no less than 10 µM in the test on pERK in HCT116 cells; no less than 10 µM with pERK in ASPC1 cells; 0.003 µM at KRas G12V; 0.008 µM against KRas G12R; 0.013 µM against KRas G12D.

Regarding `CCc1c(F)ccc2cc(O)cc(-c3ncc4c(NCCC5CNC(=O)C5)nc(OC[C@@]56CCCN5C[C@H](F)C6)nc4c3F)c12` (stereo partly drawn) [Example 376, 4-(2-((7-(8-ethyl-7-fluoro-3-hydroxynaphthalen-1-yl)-8-fluoro-2-(((2R,7aS)-2-fluorotetrahydro-1H-pyrrolizin-7a(5H)-yl)methoxy)pyrido[4,3-d]pyrimidin-4-yl)amino)ethyl)pyrrolidin-2-one], the IC50 with pERK in HCT116 cells was 6.49 µM; with pERK in ASPC1 cells, no less than 10 µM; on KRas G12V it was 0.003 µM; on KRas G12R, 0.004 µM; at KRas G12D, 0.016 µM.

In the case of `CCc1c(F)ccc2cc(O)cc(-c3ncc4c(N5CCN6C(=O)NCC6C5)nc(OC[C@@]56CCCN5C[C@H](F)C6)nc4c3F)c12` (stereo partly drawn) [Example 380, 7-(7-(8-ethyl-7-fluoro-3-hydroxynaphthalen-1-yl)-8-fluoro-2-(((2R,7aS)-2-fluorohexahydro-1H-pyrrolizin-7a-yl)methoxy)pyrido[4,3-d]pyrimidin-4-yl)hexahydroimidazo[1,5-a]pyrazin-3(2H)-one], the IC50 was 1.1 µM in the test with pERK in MKN1 cells; 0.054 µM against KRas G12C; 3.21 µM in the test with pERK in HCT116 cells; no less than 20 µM with pERK in ASPC1 cells; 0.051 µM against KRas G12V; 0.018 µM on KRas WT. For the same compound, the results for the 50% inhibitory concentration (IC50) in the test on pERK in PSN1 cells, against KRas G12R and on KRas G12D were no less than 10 µM, 0.071 µM and 0.275 µM, respectively.

For the compound `CCc1c(F)ccc2cc(O)cc(-c3ncc4c(N5CCC[C@]6(C5)C[C@@](C)(O)C6)nc(OCC56CCCN5CCC6)nc4c3F)c12` [Example 329, cis-6-(7-(8-ethyl-7-fluoro-3-hydroxynaphthalen-1-yl)-8-fluoro-2-((hexahydro-1H-pyrrolizin-7a-yl)methoxy)pyrido[4,3-d]pyrimidin-4-yl)-2-methyl-6-azaspiro[3.5]nonan-2-ol], the IC50 in the test with pERK in MKN1 cells is no less than 10 µM; at KRas G12C, 2.62 µM; in the test on pERK in HCT116 cells it was no less than 20 µM; with pERK in ASPC1 cells it was no less than 20 µM; on KRas G12V it was 1.78 µM; on KRas WT, 1.03 µM. For the same compound, the IC50 is no less than 10 µM in the test on pERK in PSN1 cells, 3.38 µM on KRas G12R and 6.6 µM against KRas G12D.

On to `CCc1c(F)ccc2cc(O)cc(-c3ncc4c(NCCN5CC(=O)NC5=O)nc(OC[C@@]56CCCN5C[C@H](F)C6)nc4c3F)c12` [Example 378, 1-(2-((7-(8-ethyl-7-fluoro-3-hydroxynaphthalen-1-yl)-8-fluoro-2-(((2R,7aS)-2-fluorohexahydro-1H-pyrrolizin-7a-yl)methoxy)pyrido[4,3-d]pyrimidin-4-yl)amino)ethyl)imidazolidine-2,4-dione], for which the 50% inhibitory concentration (IC50) in the test on pERK in HCT116 cells is no less than 10 µM; in the test with pERK in ASPC1 cells, no less than 10 µM; on KRas G12V, 0.014 µM; against KRas G12R, 0.025 µM; at KRas G12D, 0.104 µM.

As to `CCc1c(F)ccc2cc(O)cc(-c3ncc4c(N5CCC[C@]6(C5)C[C@](C)(O)C6)nc(OCC56CCCN5CCC6)nc4c3F)c12` [Example 328, trans-6-(7-(8-ethyl-7-fluoro-3-hydroxynaphthalen-1-yl)-8-fluoro-2-((hexahydro-1H-pyrrolizin-7a-yl)methoxy)pyrido[4,3-d]pyrimidin-4-yl)-2-methyl-6-azaspiro[3.5]nonan-2-ol], the IC50 in the test on pERK in MKN1 cells is 0.271 µM; at KRas G12C, 0.009 µM; in the test on pERK in HCT116 cells, 1.28 µM; with pERK in ASPC1 cells, 1.72 µM; on KRas G12V, 0.006 µM; against KRas WT, 0.009 µM. Also, the IC50 in the test with pERK in PSN1 cells was no less than 10 µM; on KRas G12R, 0.018 µM; against KRas G12D, 0.009 µM.

`CCc1c(F)ccc2cc(O)cc(-c3ncc4c(N5CCN6C(=O)NC(=O)C6C5)nc(OC[C@@]56CCCN5C[C@H](F)C6)nc4c3F)c12` (stereo partly drawn) [Example 381, 7-(7-(8-ethyl-7-fluoro-3-hydroxynaphthalen-1-yl)-8-fluoro-2-(((2R,7aS)-2-fluorohexahydro-1H-pyrrolizin-7a-yl)methoxy)pyrido[4,3-d]pyrimidin-4-yl) tetrahydroimidazo[1,5-a]pyrazine-1,3(2H,5H)-dione]: the half-inhibitory concentration (IC50) in the test with pERK in MKN1 cells is 0.282 µM; against KRas G12C it was 0.016 µM; in the test on pERK in HCT116 cells, 0.741 µM; in the test with pERK in ASPC1 cells it was no less than 20 µM; against KRas G12V, 0.011 µM; at KRas WT, 0.005 µM. Moreover, the values for the half-maximal inhibitory concentration (IC50) in the test on pERK in PSN1 cells, against KRas G12R and on KRas G12D were no less than 10 µM, 0.021 µM and 0.023 µM, respectively.

Consider `CCc1c(F)ccc2cc(O)cc(-c3ncc4c(NCCN5C(=O)CNC5=O)nc(OC[C@@]56CCCN5C[C@H](F)C6)nc4c3F)c12` [Example 379, 3-(2-((7-(8-ethyl-7-fluoro-3-hydroxynaphthalen-1-yl)-8-fluoro-2-(((2R,7aS)-2-fluorohexahydro-1H-pyrrolizin-7a-yl)methoxy)pyrido[4,3-d]pyrimidin-4-yl)amino)ethyl)imidazolidine-2,4-dione], for which the IC50 was no less than 10 µM in the test on pERK in MKN1 cells; 0.021 µM at KRas G12C; no less than 20 µM in the test on pERK in HCT116 cells; no less than 20 µM in the test on pERK in ASPC1 cells; 0.014 µM against KRas G12V; 0.026 µM at KRas WT. For the same compound, the half-maximal inhibitory concentration (IC50) with pERK in PSN1 cells was no less than 10 µM; against KRas G12R, 0.034 µM; against KRas G12D, 0.111 µM.
